Measured values published in patent publication US12049467B2 (The Johns Hopkins University, priority 2021, dated 2024).

What follows are compounds tested against T1, GABAA (α3β2γ2) subtype (Homo sapiens, UniProt P18507+P34903) (assay: Automated patch-clamp (QPatch) modulation of GABA-activated currents in cells stably transfected with GABAA (α3β2γ2) channels). Settings: stably transfected Ltk cells, 2.0 μM GABA (submaximal), whole-cell patch, holding potential −80 mV; Emax = upper asymptote of dose-response fit.
T1 construct: expressed in transfected cells
Assay type: cell-based
Experimental: Modulatory effects of the compounds of this disclosure were investigated using cells stably transfected with GABA-activated channels of the GABAA (α3β2γ2) subtype together with submaximal GABA concentrations. Expression of GABA receptor were induced by adding Dexamethasone to the cells for 24 to 48 h before experimentation. In general, cells were passaged at a confluence of about 80 to 90%. For electrophysiological measurements cells were harvested at a confluence of about 80 to 90% from sterile culture flasks containing culture complete medium. Cells were transferred as suspension in PBS to the QPatch 16X or QPatch HTX system to the centrifuge/washer directly. Cells were incubated at 37° C. in a humidified atmosphere with 5% CO2 (rel. humidity about 95%). The cells were continuously maintained in and passaged in sterile culture flasks containing a 1:1 mixture of Dulbecco's modified eagle medium and nutrient mixture D-MEM/F-12 (1×, liquid, with L-Glutamine), supplemented with 10% foetal bovine serum and 1.0% Penicillin/Streptomycin solution and neomycin. The 1× bath solution was made at least every 5 days out of a sterile lox bath solution, which had been prepared prior to the experimental start of the present study and stored at 1° C. to 9° C. The final bath solution included Sodium Chloride 137 mM, Potassium Chloride 4 mM, Calcium Chloride 1.8 mM, Magnesium Chloride 1 mM, HEPES 10 mM, D-Glucose 10 mM, pH (NaOH) 7.4. The 1× intracellular solution was thawed every day and includes Potassium Chloride 130 mM, Magnesium Chloride 1 mM, Mg-ATP 5 mM, HEPES 10 mM, EGTA 5 Mm, pH (KOH) 7.2. Automated patch-clamping: Cells were transferred as suspension in serum-free medium to the QPatch HTX system and kept in the cell storage tank during experiments. All solutions applied to cells including the intracellular solution were maintained at room temperature (19° C. to 30° C.). After formation of a Gigaohm seal between the patch electrodes and transfected individual Ltk cells were ruptured to assure electrical access to the cell interior (whole-cell patch-configuration). Inward currents were measured upon application of 2.0 μM GABA to patch-clamped cells for 4 s. During the entire experiment the cells were voltage-clamped at a holding potential of −80 mV. For the analysis of test items, GABAA receptors were stimulated by 2.0 μM GABA and test item combinations described below. Thirty-second prewash steps with test items was performed in between two agonist applications. The dose-response curve was fit with a sigmoidal three parameter equation current=Emax/1+10^((Log EC50−X)*H) where X is the compound concentration, Emax the upper asymptote, EC50 the concentration of test item at half maximal effect, and H is the Hill coefficient. SigmaPlot 11.0 was used for construction of curve.

T1 sequence (P34903 29-492): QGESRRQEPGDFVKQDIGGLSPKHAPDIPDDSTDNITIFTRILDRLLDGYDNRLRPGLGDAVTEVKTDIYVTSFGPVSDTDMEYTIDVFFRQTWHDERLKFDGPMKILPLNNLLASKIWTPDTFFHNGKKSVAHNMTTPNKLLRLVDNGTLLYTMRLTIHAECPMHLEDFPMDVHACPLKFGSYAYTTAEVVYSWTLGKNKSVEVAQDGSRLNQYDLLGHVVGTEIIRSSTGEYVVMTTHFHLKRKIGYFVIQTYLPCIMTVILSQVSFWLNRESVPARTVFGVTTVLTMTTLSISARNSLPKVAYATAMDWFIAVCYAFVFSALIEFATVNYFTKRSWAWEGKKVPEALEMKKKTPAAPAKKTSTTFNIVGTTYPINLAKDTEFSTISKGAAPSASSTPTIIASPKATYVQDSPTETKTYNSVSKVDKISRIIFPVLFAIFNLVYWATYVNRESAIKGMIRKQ
T1 sequence (P47870 25-512 partner limits assumed): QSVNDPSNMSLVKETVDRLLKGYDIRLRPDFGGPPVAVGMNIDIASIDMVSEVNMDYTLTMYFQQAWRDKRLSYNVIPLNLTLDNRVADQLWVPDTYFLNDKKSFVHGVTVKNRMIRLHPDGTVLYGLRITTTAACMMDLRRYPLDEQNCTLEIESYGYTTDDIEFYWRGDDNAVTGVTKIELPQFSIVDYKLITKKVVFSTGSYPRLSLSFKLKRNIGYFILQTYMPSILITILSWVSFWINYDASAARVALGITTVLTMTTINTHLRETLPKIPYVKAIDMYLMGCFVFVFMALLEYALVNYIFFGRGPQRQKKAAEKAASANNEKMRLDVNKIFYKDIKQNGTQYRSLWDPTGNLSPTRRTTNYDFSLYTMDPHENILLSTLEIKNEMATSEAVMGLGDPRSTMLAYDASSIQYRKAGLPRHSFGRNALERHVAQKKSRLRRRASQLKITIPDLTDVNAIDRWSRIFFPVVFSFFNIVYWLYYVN
T1 sequence (P18507 40-475): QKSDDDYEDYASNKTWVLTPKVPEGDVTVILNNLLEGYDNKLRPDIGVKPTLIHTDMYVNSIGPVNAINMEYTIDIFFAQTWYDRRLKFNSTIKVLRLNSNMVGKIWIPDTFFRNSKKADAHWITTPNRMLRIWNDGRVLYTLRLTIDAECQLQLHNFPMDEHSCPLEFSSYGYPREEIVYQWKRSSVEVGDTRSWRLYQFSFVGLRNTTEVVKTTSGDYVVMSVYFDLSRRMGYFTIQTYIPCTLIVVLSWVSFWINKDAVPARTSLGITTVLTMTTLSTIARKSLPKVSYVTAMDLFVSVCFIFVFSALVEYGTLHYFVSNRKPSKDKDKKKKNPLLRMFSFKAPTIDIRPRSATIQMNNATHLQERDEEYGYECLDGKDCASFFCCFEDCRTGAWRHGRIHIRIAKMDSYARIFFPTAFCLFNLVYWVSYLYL

SMILES | Emax
O=C(O)c1nn2c(c1Br)CN=C(c1ccccc1F)c1cc(Cl)ccc1-2 [Example 21, 3-bromo-8-chloro-6-(2-fluorophenyl)-4H-pyrazolo[1,5-a][1,4]benzodiazepine-2-carboxylic Acid] | > 100%
NC(=O)NCCNC(=O)c1cc2n(n1)-c1ccc(Cl)cc1C(c1ccccc1F)=NC2 [Example 25, 8-chloro-6-(2-fluorophenyl)-N-(2-ureidoethyl)-4H-benzo[f]pyrazolo[1,5-a][1,4]diazepine-2-carboxamide] | 51 to 100%
O=C(O)c1cc2n(n1)-c1ccccc1C(c1ccccc1F)=NC2 [Example 5, 6-(2-fluorophenyl)-4H-pyrazolo[1,5-a][1,4]benzodiazepine-2-carboxylic acid] | < 50%
O=C(O)c1cc2n(n1)-c1ccc(Cl)cc1C(c1ccccc1Br)=NC2 [Example 13, 6-(2-bromophenyl)-8-chloro-4H-pyrazolo[1,5-a][1,4]benzodiazepine-2-carboxylic acid] | > 100%
O=C(O)c1cc2n(n1)-c1ccc(Cl)cc1C(c1ccccc1Cl)=NC2 [Example 15, 8-chloro-6-(2-chlorophenyl)-4H-pyrazolo[1,5-a][1,4]benzodiazepine-2-carboxylic acid] | > 100%
Cc1ccc2c(c1)C(c1ccccc1F)=NCc1cc(C(=O)O)nn1-2 [Example 4, 6-(2-fluorophenyl)-8-methyl-4H-pyrazolo[1,5-a][1,4]benzodiazepine-2-carboxylic acid] | > 100%
O=C(O)c1cc2n(n1)-c1ccc(Cl)cc1C(c1c(F)cccc1F)=NC2 [Example 14, 8-chloro-6-(2,6-difluorophenyl)-4H-pyrazolo[1,5-a][1,4]benzodiazepine-2-carboxylic acid] | 51 to 100%
O=C(O)c1nn2c(c1Cl)CN=C(c1ccccc1F)c1cc(Cl)ccc1-2 [Example 22, 3,8-dichloro-6-(2-fluorophenyl)-4H-pyrazolo[1,5-a][1,4]benzodiazepine-2-carboxylic acid] | 51 to 100%
O=C(O)c1cc2n(n1)-c1ccc(C3CC3)cc1C(c1ccccc1F)=NC2 [Example 3, 8-cyclopropyl-6-(2-fluorophenyl)-4H-pyrazolo[1,5-a][1,4]benzodiazepine-2-carboxylic acid] | > 100%
O=C(O)c1cc2n(n1)-c1ccc(Br)cc1C(c1ccccc1F)=NC2 [Example 7, 8-bromo-6-(2-fluorophenyl)-4H-pyrazolo[1,5-a][1,4]benzodiazepine-2-carboxylic acid] | > 100%
O=C(O)c1cc2n(n1)-c1ccc(Cl)cc1C(c1ccccc1F)=NC2 [Example 1, 8-chloro-6-(2-fluorophenyl)-4H-pyrazolo[1,5-a][1,4]benzodiazepine-2-carboxylic acid] | > 100%
Cc1ccc2c(c1)C(c1ccccc1F)=NCc1c(C(=O)O)cnn1-2 [Example 18, 6-(2-fluorophenyl)-8-methyl-4H-pyrazolo[1,5-a][1,4]benzodiazepine-3-carboxylic acid] | > 100%
O=C(O)c1cc2n(n1)-c1ccc(C(F)(F)F)cc1C(c1ccccc1F)=NC2 [Example 10, 6-(2-fluorophenyl)-8-(trifluoromethyl)-4H-pyrazolo[1,5-a][1,4]benzodiazepine-2-carboxylic acid] | > 100%
CC1N=C(c2ccccc2F)c2cc(Cl)ccc2-n2nc(C(=O)O)cc21 (centres unmarked) [Example 20, 12-Chloro-9-(2-fluorophenyl)-7-methyl-2,3,8-triazatricyclo[8.4.0.0^2,6]tetradeca-1(10),3,5,8,11,13-hexaene-4-carboxylic acid] | > 100%
O=C(O)c1cnn2c1CN=C(c1ccccc1F)c1cc(Cl)ccc1-2 [Example 17, 12-Chloro-9-(2-fluorophenyl)-2,3,8-triazatricyclo[8.4.0.0^2,6]tetradeca-1(10),3,5,8,11,13-hexaene-5-carboxylic Acid] | > 100%
C#Cc1ccc2c(c1)C(c1ccccc1F)=NCc1cc(C(=O)O)nn1-2 [Example 2, 8-ethynyl-6-(2-fluorophenyl)-4H-pyrazolo[1,5-a][1,4]benzodiazepine-2-carboxylic acid] | > 100%
O=C(O)c1cc2n(n1)-c1ccc(Cl)cc1C(c1ccccc1F)=NC2O (centres unmarked) [Example 24, 8-chloro-6-(2-fluorophenyl)-4-hydroxy-4H-benzo[f]pyrazolo[1,5-a][1,4]diazepine-2-carboxylic Acid] | < 50%
NS(=O)(=O)NCCNC(=O)c1cc2n(n1)-c1ccc(Cl)cc1C(c1ccccc1F)=NC2 [Example 27, 8-chloro-6-(2-fluorophenyl)-N-[2-(sulfamoylamino)ethyl]-4H-pyrazolo[1,5-a][1,4]benzodiazepine-2-carboxamide] | 51 to 100%
O=C(O)c1cc2n(n1)-c1cc(Cl)ccc1C(c1ccccc1F)=NC2 [Example 12] | < 50%
O=C(O)c1cc2n(n1)-c1ccc(Cl)cc1C(c1ccccc1F)=[N+]([O-])C2 [Example 23, 8-chloro-6-(2-fluorophenyl)-5-oxido-4H-pyrazolo[1,5-a][1,4]benzodiazepin-5-ium-2-carboxylic Acid] | > 100%
O=C(O)c1cc2n(n1)-c1ccc(SC(F)(F)F)cc1C(c1ccccc1F)=NC2 [Example 9, 6-(2-fluorophenyl)-8-(trifluoromethylsulfanyl)-4H-pyrazolo[1,5-a][1,4]benzodiazepine-2-carboxylic acid] | > 100%
Cc1c(C(=O)O)nn2c1CN=C(c1ccccc1F)c1cc(Cl)ccc1-2 [Example 19, 12-Chloro-9-(2-fluorophenyl)-5-methyl-2,3,8-triazatricyclo[8.4.0.0^2,6]tetradeca-1(10),3,5,8,11,13-hexaene-4-carboxylic Acid] | > 100%
O=C(O)c1cc2n(n1)-c1ccc(Cl)cc1C(c1cccc(F)c1F)=NC2 [Example 16] | > 100%
C[Si](C)(C)c1ccc2c(c1)C(c1ccccc1F)=NCc1cc(C(=O)O)nn1-2 [Example 8, 6-(2-fluorophenyl)-8-trimethylsilyl-4H-pyrazolo[1,5-a][1,4]benzodiazepine-2-carboxylic acid] | < 50%
O=C(O)c1cc2n(n1)-c1ccc(-c3ccccc3)cc1C(c1ccccc1F)=NC2 [Example 6, 6-(2-fluorophenyl)-8-phenyl-4H-pyrazolo[1,5-a][1,4]benzodiazepine-2-carboxylic acid] | < 50%
O=C(O)c1cc2n(n1)-c1ccc(Cl)cc1C(c1ccccc1)=NC2 [Example 29, 8-chloro-6-phenyl-4H-benzo[f]pyrazolo[1,5-a][1,4]diazepine-2-carboxylic acid] | > 100%
NS(=O)(=O)NCCNC(=O)c1cnn2c1CN=C(c1ccccc1F)c1cc(Cl)ccc1-2 [Example 28, 8-chloro-6-(2-fluorophenyl)-N-[2-(sulfamoylamino)ethyl]-4H-pyrazolo[1,5-a][1,4]benzodiazepine-3-carboxamide] | > 100%
NC(=O)NCCNC(=O)c1cnn2c1CN=C(c1ccccc1F)c1cc(Cl)ccc1-2 [Example 26, 8-chloro-6-(2-fluorophenyl)-N-(2-ureidoethyl)-4H-pyrazolo[1,5-a][1,4]benzodiazepine-3-carboxamide] | > 100%
O=C(O)c1cc2n(n1)-c1ccc(OC(F)(F)F)cc1C(c1ccccc1F)=NC2 [Example 11, 6-(2-fluorophenyl)-8-(trifluoromethoxy)-4H-pyrazolo[1,5-a][1,4]benzodiazepine-2-carboxylic acid] | > 100%
